Data published in patent US10106516B2, “PDE10 inhibitors and related compositions and methods” (Omeros Corporation, priority 2010, dated 2018).

Experiments:
PDE10 = biological target: T1, PDE10 (Homo sapiens, UniProt Q9Y233); experiment: PDE10 biochemical assay (two-step Thompson and Appleman method or SPA); conditions: PDE10 inhibition
T1 construct: made in house; host or cells: Sf9 insect cells (baculovirus)
Method: In short, cAMP is spiked with (^3H)cAMP and incubated with PDE10 and various concentrations of a compound of structure (I). After the appropriate incubation time, the reaction is terminated by heating. The mixture is then subjected to treatment with snake venom phosphatase. The phosphatase hydrolyzes any AMP in the mixture, but leaves unreacted cAMP intact. Thus, by separating cAMP from the mixture and determining its concentration (by radiography), the percent of inhibition can be determined. IC50 values can be calculated by performing the experiment at several concentrations using standard graphical means. A detailed description of the actual technique used for IC50 assays as set forth in following Examples.
The phosphodiesterase (PDE) assay was performed using recombinant human PDE 1A3, 2A3, 3 catalytic region, 4 catalytic region, 5 catalytic region, 7A, 8A, 9A2, 10A1 and 11A1 enzymes expressed in a baculoviral system using Sf9 cells. PDE activity was measured using a modification of the two-step method of Thompson and Appleman described above which was adapted for 96 well plate format. […] The final assay volume was 110 μl with assay buffer (10 mM MgCl2; 40 mM Tris.HCl; pH 7.4). Reactions were initiated with enzyme and incubated with (^3H)-substrate and substance for 20 minutes at 30° C. The reaction was terminated by denaturing the enzyme (heating the reaction to 70° C. for 2 minutes). The reaction was then cooled at 4° C. for 10 minutes before the addition of snake venom (Crotalus atrox, 0.2 mg/ml) for 10 minutes at 30° C., thus allowing non-specific hydrolysis of the tritiated substrate. Separation of the remaining unhydrolysed cyclic nucleotide was achieved by a batch binding of the mixture to activated Dowex (200 μl) anion exchange resin. The anion exchange resin bound the charged nucleotides, leaving only hydrolysed (^3H) substrate in the soluble fraction. The soluble fraction (50 μl) was then added to microscint-20 (200 μl) and counted on a Top Count Plate reader. Radioactivity units were plotted against inhibitor concentration and IC50 values obtained using Graph Pad Prism software.
Alternatively, phosphodiesterase activity was measured by scintillation proximity assay (SPA) with [^3H]-cGMP as substrate. Purified PDE10 was diluted and stored in 25 mM Tris-Cl (pH 8.0)/100 mM NaCl/0.05% Tween 20/50% glycerol/3 mM DTT. Assays contained (final concentrations): 50 mM Tris-Cl (pH 7.5)/8.3 mM MgCl2/1.7 mM EGTA/0.5 mg/ml BSA/5% DMSO and 2 ng PDE10 in a final volume of 0.1 mL. Inhibition was evaluated at 8 concentrations in duplicate. Reactions were initiated by addition of enzyme and were terminated after 20 minutes at 30° C. by the addition of 50 μl of SPA beads containing Zn^++. The mixture was shaken, allowed to settle for 3 hours, and counted in a Wallac plate counter. Results (net cpm) were fitted to a four parameter logistic model using Excel Solver®.

C57BL/6 male mice [1] = experiment: Conditioned avoidance response (CAR) model of psychosis; assay type: in vivo; conditions: vs vehicle
Method: (§1) Dosing of the compounds is by intraperitoneal (i.p.) injection or oral gavage (p.o.). Intraperitoneal injection is accomplished by restraining the animal, exposing the abdomen and inserting the needle just above the knees on the mouse's right side. Oral gavage is performed by restraining the animal in such a way that its head is tilted back and the esophagus is relatively straight. The gavage needle (20 G×1.5″, Cadence Science) is inserted into the mouth in line with the body and gently pushed along the esophagus and into the stomach. If resistance is encountered the needle is removed and reinserted.
Conditioned avoidance response (CAR) is a behavioral test to evaluate the antipsychotic effect of a test compound. It utilizes a shuttle box (Med Associates, St. Albans, Vt.) with two identical chambers separated by a retractable door. Each chamber is fitted with a metal grid floor that is capable of delivering electric shocks independently. A computer program is used to implement the testing paradigm as well as record the animal's movement between the two chambers through infrared beam sensors. The testing paradigm is as follows. A mouse is placed into one chamber. A light (conditioned stimulus, CS) comes on. Five seconds later, mild electric shocks (0.4 mA; (unconditioned stimulus, US) are delivered to the chamber where the mouse is located (as detected by infrared beams) until the mouse escapes to the adjacent chamber or until 10 sec has elapsed. The US and CS always co-terminate. With randomized inter-trial intervals averaging 15 sec, 30 such CS-US pairing trials are given to each mouse each day. For each trial, an escape response is registered if the mouse crosses to the other chamber after being shocked (i.e., during the 10-sec US period), and an avoidance response is registered if the mouse crosses to the other chamber during the first 5-sec CS only period. The animals are trained in this paradigm for 30-40 days, during which the average percentage of avoidance responses will improve to 80-90%. […] These trained animals are then used for compound testing with the same paradigm.
C57BL/6 male mice were trained in the CAR paradigm to predict and avoid the noxious stimulus (foot shock), reaching a plateau of approximately 25 avoidance responses per 30 trials each day. […] Vehicle treatment and compound treatment were given to the same animals on alternating days, and the effect of compound in reducing avoidance response was analyzed through within-subject comparison (paired t-test).
C57BL/6 male mice were trained in the CAR paradigm to predict and avoid the noxious stimulus (foot shock), reaching a plateau of approximately 25-28 avoidance responses per 30 trials (“training plateau”) each day. […] Vehicle treatment and compound treatment were given to the same animals on alternating days, and the effect of compound in reducing avoidance response was analyzed through within-subject comparison (paired t-test).

C57BL/6 male mice [2] = experiment: PCP-induced hyperactivity model of psychosis; assay type: in vivo; conditions: vs vehicle+PCP control
Method: as §1
Psychostimulant-induced hyperactivity is measured by injecting animals with PCP and monitoring the animals' activity levels in VersaMax chambers (Accuscan Instruments, Columbus, Ohio) measuring 40×40 cm. Locomotor activity is detected by photobeam breaks as the animal crosses each beam. The animal is placed in the center of the field and left undisturbed for 20 minutes to measure its spontaneous activity in a novel environment. Measurements used to assess locomotor activity include: horizontal activity, total distance traveled, vertical activity (rearing events—animal raises up on hindlimbs), rotation, stereotypy, and distance traveled in the center compared to total distance traveled (center:total distance ratio). The NMDA antagonist PCP induces a psychosis-like syndrome manifest as hyperactivity and increased stereotypic behavior. Known antipsychotics are able to reverse psychostimulant-induced hyperactivity and stereotypy.
C57BL/6 male mice were given either compound 1-1 or vehicle by intraperitoneal injection (FIG. 1) or oral gavage (FIG. 2). Twenty minutes (for i.p.) or forty minutes (for p.o.) later, they were injected with PCP (5 mg/kg, i.p.). Ten minutes later, the mice were placed in activity chambers and their locomotor activity in the horizontal dimension was monitored by infrared beam breaks for 20 min (5 consecutive 4-minute intervals (INT) as indicated).
C57BL/6 male mice were given either compound 2-1 or vehicle by intraperitoneal injection (FIG. 3) or oral gavage (FIG. 4). Twenty minutes (for i.p.) or 40 minutes (for p.o.) later, they were injected with PCP (5 mg/kg, i.p.). Ten minutes later, the mice were placed in activity chambers and their locomotor activity in the horizontal dimension was monitored by infrared beam breaks for 20 min (5 consecutive 4-minute intervals (INT) as indicated).
C57BL/6 male mice were given either compound 11-1 or vehicle by intraperitoneal injection. Five minutes later they were injected with PCP (5 mg/kg, i.p.). Ten minutes later, the mice were placed in activity chambers and their locomotor activity in the horizontal dimension was monitored by infrared beam breaks for 20 min (5 consecutive 4-minute intervals (INT) as indicated).

[3] = 10 mg/kg oral gavage, 25 minutes prior to testing
[4] = 2 mg/kg oral gavage, 55 minutes prior to testing
[5] = 5 mg/kg oral gavage, 55 minutes prior to testing
[6] = 10 mg/kg oral gavage, 55 minutes prior to testing

T1 sequence (Q9Y233 1-779 isoform Q9Y233-1): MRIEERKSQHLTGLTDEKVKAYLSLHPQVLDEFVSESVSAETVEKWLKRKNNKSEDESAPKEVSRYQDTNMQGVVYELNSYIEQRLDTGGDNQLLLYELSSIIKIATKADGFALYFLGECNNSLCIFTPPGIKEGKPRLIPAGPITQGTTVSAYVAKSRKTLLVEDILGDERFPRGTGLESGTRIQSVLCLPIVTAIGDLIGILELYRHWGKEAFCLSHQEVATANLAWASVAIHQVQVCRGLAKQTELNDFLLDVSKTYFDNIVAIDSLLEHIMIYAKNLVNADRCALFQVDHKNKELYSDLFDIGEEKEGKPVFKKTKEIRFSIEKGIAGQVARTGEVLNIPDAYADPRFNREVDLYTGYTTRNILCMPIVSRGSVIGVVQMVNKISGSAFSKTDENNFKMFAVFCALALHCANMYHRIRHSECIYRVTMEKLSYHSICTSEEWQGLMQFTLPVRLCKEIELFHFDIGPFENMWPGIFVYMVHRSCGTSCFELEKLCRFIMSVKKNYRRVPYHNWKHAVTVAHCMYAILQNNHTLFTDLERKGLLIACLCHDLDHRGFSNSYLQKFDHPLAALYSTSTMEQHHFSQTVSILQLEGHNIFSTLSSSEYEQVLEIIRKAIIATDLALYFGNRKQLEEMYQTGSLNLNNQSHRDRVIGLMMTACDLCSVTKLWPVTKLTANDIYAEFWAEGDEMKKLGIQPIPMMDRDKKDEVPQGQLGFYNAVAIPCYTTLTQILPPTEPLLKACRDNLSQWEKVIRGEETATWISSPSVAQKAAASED

Row | SMILES | IC50 (PDE10) [nM] | reduction of number of avoidance responses (CAR) (C57BL/6 male mice [1]; [5]) | reduction of number of avoidance responses (CAR) (C57BL/6 male mice [1]; [6]) | also measured
1 | COc1cc(-c2ccc(C(=O)C(OC)c3ccc(-c4nnc(C)o4)cc3)o2)cc(OC)c1OC (stereo not drawn) [Compound 36-1, 2-Methoxy-2-(4-(5-Methyl-1,3,4-Oxadiazol-2-Yl)Phenyl)-1-(5-(3,4,5-Trimethoxyphenyl)Furan-2-Yl)Ethanone] | ≤ 1000 |  |  | reduction of number of avoidance responses (CAR) (C57BL/6 male mice [1]; 5 mg/kg oral gavage, 25 minutes prior to testing): a trend that did not reach significance; reduction of number of avoidance responses (CAR) (C57BL/6 male mice [1]; [3]): a trend that did not reach significance; reduction of number of avoidance responses (CAR) (C57BL/6 male mice [1]; 15 mg/kg oral gavage, 25 minutes prior to testing): significantly reduces
2 | CCOC(C(=O)c1ccc(-c2cc(OC)c(Cl)c(OC)c2)o1)c1ccc(-c2nnc(C)o2)cc1 (stereo not drawn) [Compound 63-1, 1-(5-(4-Chloro-3,5-Dimethoxyphenyl)Furan-2-Yl)-2-Ethoxy-2-(4-(5-Methyl-1,3,4-Oxadiazol-2-Yl)Phenyl)Ethanone] | ≤ 1000 | significantly reduces | significantly reduces | reduction of number of avoidance responses (CAR) (C57BL/6 male mice [1]; [4]): significantly reduces
3 | COc1cc(-c2ccc(C(=O)C(OC)c3ccc(-c4nnc(C)s4)cc3)o2)cc(OC)c1Br (stereo not drawn) [Compound 34-1, 1-(5-(4-Bromo-3,5-Dimethoxyphenyl)Furan-2-Yl)-2-Methoxy-2-(4-(5-Methyl-1,3,4-Thiadiazol-2-Yl)Phenyl)Ethanone] | ≤ 1000 |  |  | reduction of number of avoidance responses (CAR) (C57BL/6 male mice [1]; [3]): significantly reduces
4 | COc1cc(-c2csc(C(=O)C(OC)c3ccc(N4CCOCC4)cc3)n2)cc(OC)c1Br (stereo not drawn) [Compound 1-1, 1-(4-(4-Bromo-3,5-Dimethoxyphenyl)Thiazol-2-Yl)-2-Methoxy-2-(4-Morpholinophenyl)Ethanone] | ≤ 1000 |  |  | reduction of PCP-induced hyperactivity (horizontal locomotor activity) (C57BL/6 male mice [2]; 10 mg/kg i.p., 20 min before PCP (5 mg/kg, i.p.)): significantly reduces; reduction of PCP-induced hyperactivity (horizontal locomotor activity) (C57BL/6 male mice [2]; oral gavage, dose not given, 40 min before PCP (5 mg/kg, i.p.)): effective
5 | COc1cc(-c2ccc(C(=O)C(OC)c3ccc(-c4nnc(C)o4)cc3)o2)cc(OC)c1Cl (stereo not drawn) [Compound 61-1, 1-(5-(4-Chloro-3,5-Dimethoxyphenyl)Furan-2-Yl)-2-Methoxy-2-(4-(5-Methyl-1,3,4-Oxadiazol-2-Yl)Phenyl)Ethanone] | ≤ 1000 | significantly reduces | significantly reduces | reduction of number of avoidance responses (CAR) (C57BL/6 male mice [1]; [4]): significantly reduces
6 | CCOC(C(=O)c1ccc(-c2cc(OC)c(Br)c(OC)c2)o1)c1ccc(-c2nnc(C)o2)cc1 (stereo not drawn) [Compound 47-1, 1-(5-(4-Bromo-3,5-Dimethoxyphenyl)Furan-2-Yl)-2-Ethoxy-2-(4-(5-Methyl-1,3,4-Oxadiazol-2-Yl)Phenyl)Ethanone] | ≤ 1000 | significantly reduces | significantly reduces | reduction of number of avoidance responses (CAR) (C57BL/6 male mice [1]; [4]): a trend that did not reach significance
7 | CCOC(C(=O)c1ccc(-c2cc(OC)c(Cl)c(OC)c2)o1)c1ccc(-c2nnc(C)s2)cc1 (stereo not drawn) [Compound 65-10] | ≤ 1000 | significantly reduces | significantly reduces | 
8 | COc1cc(-c2ccc(C(=O)C(OC)c3ccc(-c4nnc(C)s4)cc3)o2)cc(OC)c1Cl (stereo not drawn) [Compound 49-1, 1-(5-(4-Chloro-3,5-Dimethoxyphenyl)Furan-2-Yl)-2-Methoxy-2-(4-(5-Methyl-1,3,4-Thiadiazol-2-Yl)Phenyl)Ethanone] | ≤ 1000 |  | significantly reduces | 
9 | CCOc1c(OC)cc(-c2ccc(C(=O)C(OC)c3ccc(N4CCOCC4)cc3)o2)cc1OC (stereo not drawn) [Compound 29-1, 1-(5-(4-Ethoxy-3,5-Dimethoxyphenyl)Furan-2-Yl)-2-Methoxy-2-(4-Morpholinophenyl)Ethanone] | ≤ 1000 |  |  | 
10 | COc1cc(-c2coc(C(=O)C(OC)c3cccc(N4CCOCC4)c3)n2)cc(OC)c1Br (stereo not drawn) [Compound 65-1] | ≤ 1000 |  |  | 
11 | COc1cc(-c2ccc(C(=O)C(OC)c3ccc(-c4csc(C)n4)cc3)o2)cc(OC)c1Br (stereo not drawn) [Compound 35-1, 1-(5-(4-Bromo-3,5-Dimethoxyphenyl)Furan-2-Yl)-2-Methoxy-2-(4-(2-Methylthiazol-4-Yl)Phenyl)Ethanone] | ≤ 1000 |  |  | 
12 | COc1cc(-c2ccn(C(=O)C(OC)c3ccc(N4CCOCC4)cc3)n2)cc(OC)c1Br (stereo not drawn) [Compound 52-1, 1-(3-(4-Bromo-3,5-Dimethoxyphenyl)-1H-Pyrazol-1-Yl)-2-Methoxy-2-(4-Morpholinophenyl)Ethanone] | ≤ 1000 |  |  | 
